Measured values reported in patent US12534501B2, “Targeting deregulated Wnt signaling in cancer using stabilized alpha-helices of BCL-9” (Dana-Farber Cancer Institute, Inc., priority 2011, dated 2026).
Numbered stars: 1 amine (or outer) side, 2 acyl side, 3 side chain; on linkers, the order of the positions; unused ones are H or OH. Bridge positions count the residues as written; N and C are the ends. Square brackets hold non-standard residues; d marks the D form. Peptide text beside a SMILES is read from it. ξ: configuration not given here. ξαMeNle(6-ylidene) = CC(CCCC=[*:3])(N[*:1])C(=O)[*:2]; Nle = CCCC[C@H](N)C(=O)O

Key:
[1] = target: T1, β-catenin (Homo sapiens, UniProt P35222); assay: Anti-FITC / anti-β-catenin co-immunoprecipitation from lysates of peptide-treated cells; type: cell-based; details: FITC and β-catenin immunoprecipitation, in situ
T1 construct: endogenous in cells; host or cells: Colo320
T1 sequence (P35222 1-781): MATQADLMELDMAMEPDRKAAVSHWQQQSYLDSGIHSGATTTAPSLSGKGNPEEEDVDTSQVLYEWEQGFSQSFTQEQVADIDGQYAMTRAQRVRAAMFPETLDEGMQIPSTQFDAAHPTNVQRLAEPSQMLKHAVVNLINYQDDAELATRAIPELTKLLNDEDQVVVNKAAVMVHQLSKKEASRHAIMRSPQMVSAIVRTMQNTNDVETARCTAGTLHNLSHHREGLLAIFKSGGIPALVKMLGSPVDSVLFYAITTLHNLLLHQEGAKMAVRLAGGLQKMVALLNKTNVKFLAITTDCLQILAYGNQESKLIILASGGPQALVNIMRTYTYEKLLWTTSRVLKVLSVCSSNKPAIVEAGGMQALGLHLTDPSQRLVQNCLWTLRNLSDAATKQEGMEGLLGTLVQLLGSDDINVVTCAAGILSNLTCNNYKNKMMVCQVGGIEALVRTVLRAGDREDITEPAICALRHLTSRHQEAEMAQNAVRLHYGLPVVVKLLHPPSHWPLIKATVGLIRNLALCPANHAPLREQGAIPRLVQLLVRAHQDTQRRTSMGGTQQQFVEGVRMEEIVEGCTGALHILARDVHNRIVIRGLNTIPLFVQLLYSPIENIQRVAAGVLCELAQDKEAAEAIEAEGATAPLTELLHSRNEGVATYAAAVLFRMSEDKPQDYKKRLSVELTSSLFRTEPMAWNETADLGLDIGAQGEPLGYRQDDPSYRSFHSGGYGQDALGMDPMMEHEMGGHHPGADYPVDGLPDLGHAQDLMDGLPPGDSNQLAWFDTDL
Text: Western blotting, performed as described (Sukhdeo, K. et al. Proc Natl Acad Sci USA 104, 7516-21 (2007)), employed the following primary antibodies: BCL9 (6109) (Mani, M. et al. Cancer Res 69, 7577-86 (2009)), BCL9 (ab37305, Abcam), B9L (AF4967, R&D Systems), β-catenin (CAT5-H10, Zymed), FITC (ab19224, Abcam), Actin-HRP (C-11, Santa Cruz), Caspase3 (#9662, Cell Signaling), IκBα (#9242, Cell signaling), PARP (#9542, Cell Signaling), E-cadherin (#3195, Cell Signaling), and Lamin B (sc-6217, Santa Cruz). Horseradish peroxidase conjugated secondary antibodies were purchased from Santa Cruz and SouthernBiotech. Co-immunoprecipitation was performed as described (Walensky, L. D. et al. Science 305, 1466-70 (2004)). Briefly, cells were lysed in 50 mM Tris, 150 mM NaCl, and 1% CHAPS buffer containing protease and phosphatase inhibitors. Lysates were precleared with Protein A/G PLUS-agarose beads (Santa Cruz Biotechnologies) for 3 hours followed by overnight incubation at 4° C. with the respective antibodies. Agarose A/G beads were then added for 4 h, pelleted, and washed as described (Walensky, L. D. et al. Science 305, 1466-70 (2004)). See results in FIG. 1D, FIG. 1H, FIG. 2A, FIG. 8.

[2] = tested on: TCF regulatory sequences (7×TdG) in Colo320 cells; assay: dGFP reporter under TCF regulatory sequences (7×TdG); type: cell-based
Text: A lentiviral reporter vector containing seven TCF/LEF-1 binding motifs and a minimal promoter driving destabilized GFP expression (7×TdG) was derived from the lentiviral vector TOP-dGFP, which contains three TCF/LEF-1 binding motifs (Sukhdeo, K. et al. Proc Natl Acad Sci USA 104, 7516-21 (2007)). Two synthetic complementary oligonucleotides (IDT-DNA) with four TCF/LEF-1 binding motifs (GATCAAAGG) were designed to generate compatible overhanging ends for annealing to an Xba1 restriction site. The oligonucleotides were annealed by heating to 95° C. and slow cooling to room temperature, followed by ligating into the Xba1-linearized TOP-dGFP vector, yielding 7×TdG. For construction of the control vector carrying seven FOP-sites (7×FdG), the 7×TOP cassette was removed from the 7×TdG vector by restriction digesting with Xma1 and Age1. A synthetic cassette carrying seven FOP sites (GGCCAAAGG) but otherwise identical to the removed 7×TOP cassette was inserted, yielding 7×FdG. BCL9 shRNA and control shRNA lentiviral vectors were generated as reported (Sampietro, J. et al. Mol Cell 24, 293-300 (2006)). See results in FIG. 10, FIG. 11B. […]
Colo320 cells were subjected to infection for 72 h with either 7×TdG or 7×FdG lentivirus, and the transduced and control non-transduced cells were trypsinized, washed, and then analyzed on a FACSaria flow sorter. […]

Compound | β-catenin interaction by co-immunoprecipitation [1] | dGFP expression [2]
CCCC[C@H](NC(=O)[C@H](CCCNC(=N)N)NC(=O)[C@H](CCC(N)=O)NC(=O)[C@@H](NC(=O)C1(C)CCCC=CCCCC(C)(NC(=O)[C@H](CC(C)C)NC(=O)[C@H](CO)NC(=O)[C@H](CCCNC(=N)N)NC(=O)[C@H](CCC(=O)O)NC(=O)[C@H](CCCNC(=N)N)NC(=O)[C@H](Cc2c[nH]cn2)NC(=O)[C@H](CCC(=O)O)NC(=O)[C@H](CC(C)C)NC(=O)[C@H](CCC(N)=O)NC(=O)[C@H](CCC(=O)O)NC(=O)[C@H](CCC(N)=O)NC(=O)[C@H](CO)NC(=O)[C@H](CC(C)C)NC(C)=O)C(=O)N[C@@H]([C@@H](C)O)C(=O)N[C@@H](CC(C)C)C(=O)N[C@@H](CCCNC(=N)N)C(=O)N1)[C@@H](C)CC)C(=O)N[C@@H](CC(C)C)C(=O)N[C@@H](Cc1ccccc1)C(N)=O (stereo partly shown) [SAH-BCL9B] (Ac-LSQEQLEHRERSL[ξαMeNle(6-ylidene)]TLR[ξαMeNle(6-ylidene)]IQR[Nle]LF-NH2; staple 14-18) | most effective β-catenin interactor in situ | dose-responsively blocked dGFP expression
SAH-BCL9B(R359E): SEQ ID NO: 7: LSQEQLEHEERSLXTLRXIQRBLF; reverse polarity point mutant, negative control of SAH-BCL9B | impaired β-catenin interaction | little to no effect
